The target in test [1] is Plk1 (Homo sapiens (Human), UniProt P53350). In words: PLK1 inhibition assay (radioactive-phosphate incorporation). Type of test: biochemical. Particulars: Ki(app), read-out: PLK1 - 33P.ENZ - CB 10 Ki. Here is the method: Compounds were screened for their ability to inhibit Plk1 using a radioactive-phosphate incorporation assay. Assays were carried out in a mixture of 25 mM HEPES (pH 7.5), 10 mM MgCl2, 25 mM NaCl, and 2 mM DTT. Final substrate concentrations were 20 μM [γ-33P]ATP (35mCi 33P ATP/mmol ATP, Perkin Elmer/Sigma Chemicals) and 9 uM Sam68 protein. Assays were carried out at room temperature in the presence of 15 nM Plk1. An assay stock buffer solution was prepared containing all of the reagents listed above, with the exception of ATP and the test compound of interest. 0.75 μL of DMSO stock containing serial dilutions of the test compound (typically starting from a final concentration of 10 μM with 2-fold serial dilutions—final DMSO concentration 1.5%) was placed in a 384 well plate followed by addition of 25 μL [γ-33P]ATP (final concentration 20 μM). The reaction was initiated by addition of 25 μL of the assay stock buffer solution.
The reaction was stopped after 45 minutes by the addition of 25 μL 30% trichloroacetic acid (TCA) containing 10 mM cold ATP. The entire quenched reaction was transferred to a 384-well glass fiber filter plate (Millipore, Cat no. MZFBNOW50). The plate was washed with 3×5% TCA. After drying, 40 μL of Ultima Gold liquid scintillation cocktail (Perkin Elmer) was added to the well prior to scintillation counting in a PerkinElmer TopCount.
After removing mean background values for all of the data points, Ki(app) data were calculated from non-linear regression analysis of the initial rate data using the Prism software package (GraphPad Prism, GraphPad Software, San Diego California, USA).

For test [2], the system named is Colo205-TCF/LEF-Luciferase (Luc) tumor. In words: In vivo inhibition of TCF/LEF reporter activity in Colo-205 tumors. Conditions: TCF/LEF luciferase reporter in Colo-205 tumors, nu/nu mice, oral gavage. Also on record: concentration or dose not given beside the values. In short, it runs like this:
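Female nu/nu mice carried subcutaneous Colo205-TCF/LEF-luciferase tumours (200–500 mm^3), n=4 per group. Compound was given by oral gavage in 1:3:5:1 EtOH:DMSO:PEG-400:H2O at 10 ml/kg, with vehicle as control. Luciferase activity in tumour lysates (Steady-Glo) was normalised to BCA protein.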
On the technique in general: A reporter such as luciferase makes a cellular process visible.

The subject of test [3] is β-catenin-TCF-mediated reporter transcription activity in Colo 205 cells. In words: Colo 205 reporter assay (TCF/LEF luciferase). Type of test: cell-based. Conditions: Colo 205 TCF/LEF luciferase reporter, five hours after addition of compound, read-out: TCF reporter Colo205 IC50. In short, it runs like this: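 Luciferase signal from a TCF/LEF-driven reporter, stably integrated in Colo 205 colon cancer cells, was measured 5 h after compound addition.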

For test [4], the target named is HEK293 membranes over-expressing WFS-1 (Homo sapiens (Human), UniProt O76024). In words: Radioligand displacement assay (tritiated Compound 136 probe). Type of test: binding. Particulars: displacement of tritiated Compound 136. How it is done:
Cell pellets were re-suspended in 15 times packed cellular volume in 4° C. hypotonic lysis buffer (10 mM HEPES, pH 7.5 containing 1×Protease inhibitor, 0.5 mM EDTA and 2 mM DTT). Re-suspended cells were homogenized with 6-8 strokes in a dounce homogenizer kept on ice. Lysates were centrifuged at 500×G for 15 minutes at 4° C. without brake to decelerate rotor. Following centrifugation, remove the supernatant to a fresh tube and place on ice (Supernatant 1). Repeat the above steps on the lysed cell pellet using 0.5 the original volume of hypotonic lysis buffer and remove the 500× G supernatant (Supernatant 2) and combine with Supernatant 1. Transfer the combined supernatants to a 45-Ti ultracentrifuge tube and centrifuge at 100,000× G for 30 minutes. Following ultracentrifugation, carefully remove the supernatant and discard. Resuspend the 100,000× G pellet in cold resuspension buffer (10 mM HEPES, pH 7.5, 300 mM NaCl containing 1× Protease inhibitor, 1× EDTA and 2 mM DTT). Centrifuge sample at 500× G for 10 minutes with no brake and remove any cloudy, flocculent material. Resuspend pellet in resuspension buffer to approximately 2 mg/mL of protein concentration for use in radioligand binding assay and immunoblotting.
The binding affinities of compounds were determined by measuring the competitive displacement of a tritiated Compound 136 probe from purified HEK293 membranes over-expressing WFS-1. The data for the radioligand displacement assay are summarized in Table 47: A<0.06 μM; 0.06 μM≤B<0.6 μM; 0.6 μM≤C<3.0 μM; D≥3.0 μM.
The probe Kd was determined by titrating tritiated probe under the standard assay conditions plus and minus excess unlabeled probe and fitting the resulting data to a “One site—Total and nonspecific binding” model in Graphpad Prism, version 6.0, San Diego, CA, US. Initially, 0.25 μl of compound dissolved in DMSO at varying concentrations was dispensed to a 384 well plate. Membrane and probe were both prepared at 2× their final concentration in 1× assay buffer as described above. 25 μL of membrane was added to the wells and incubated for 10 minutes. 25 μL of diluted probe was then added to the wells. The assay was incubated for 90 minutes at room temperature. The entire assay volume was then transferred to Millipore GF/B 384-well plates pretreated with 15 μL 0.5% PEI. The filter plates were washed 3× with 75 μL 25 mM TRIS, ph7.5, 0.1% BSA and then dried overnight. Following addition of 45 μL UltimaGold scintillant, the samples were counted in a Perkin Elmer Topcount. The radioactivity remaining is a measure of bound probe. From the bound probe vs concentration of compound titration curve, the IC50 is determined by fitting the data to a standard 3 parameter IC50 model using either Graphpad Prism, version 6.0, San Diego, CA, US, or using GeneData Analyzer, Basel, Switzerland.

In test [5] the test system is HepG2 XBP1(u)-Luc cells. Kind of test: HepG2 XBP1 reporter assay. Type of test: cell-based. Particulars: Homo sapiens, 6 h. Here is the method: HepG2 hepatoma cells were transduced with a retrovirus encoding the cDNA for unspliced (u) XBP1, which contains a non-processed intron, fused to the cDNA for firefly luciferase. Upon induction of ER stress, the non-processed intron of XBP1(u) is spliced out by active IRE1alpha endonuclease. The resulting spliced (s) XBP1 is now in frame with luciferase which causes the production of active luciferase protein, resulting in bioluminescence
HepG2 XBP1(u)-Luc cells were plated […] Cultured cells with a stably transfected reporter construct were plated at approximately 30,000 cells per well into 96 well multi-well plates for twenty four hours. The testing compounds were then added to the wells in 3-fold serial dilutions using a twenty seven micromolar top concentration. A series of control wells for each cell type received only compound solvent. Six hours after the addition of compound, reporter activity for luciferase was assayed, by addition of the SteadyGlo luminescence reagent (Promega). The reporter luminescence activity was measured using Pherastar plate reader (BMG Labtech). Readings was normalized to DMSO only treated cells, and normalized activities were then used in the IC50 calculations. The HepG2 XBP1 reporter assay data are summarized in Table 47: A<0.6 μM; 0.6 μM≤B<2.0 μM; 2.0 μM≤C<10.0 μM; D≥10.0 μM.

Test [6] deals with Colo-205 cells. Kind of test: Calcium flux assay (FLIPR Calcium 5). The class given is cell-based. Particulars: Homo sapiens, COLO 205, 0.6 h, FLIPR Calcium 5, measured over 36 minutes. Here is the method: Compounds described herein induced ER stress by causing intracellular calcium flux. Calcium flux was measured in Colo-205 cells using the FLTPR® Calcium 5 Assay Kit according to manufacter's protocol (Molecular Devices, Cat. #R8186) on a FLIPR3 system (Molecular Devices). Calcium flux is measured over 36 minutes. The Colo-205 calcium flux assay data are summarized in Table 47: A<0.6 μM; 0.6 μM≤B<2.0 μM; 2.0 μM≤C<10.0 μM; D≥10.0 μM.
On the technique in general: Calcium assays in cells follow changes in intracellular calcium, usually with a dye or a luminescent sensor.

Each structure is given as a SMILES string. Where two headings read alike, the source gives them in different places.

Plk1, sequence (P53350 whole entry, species assumed): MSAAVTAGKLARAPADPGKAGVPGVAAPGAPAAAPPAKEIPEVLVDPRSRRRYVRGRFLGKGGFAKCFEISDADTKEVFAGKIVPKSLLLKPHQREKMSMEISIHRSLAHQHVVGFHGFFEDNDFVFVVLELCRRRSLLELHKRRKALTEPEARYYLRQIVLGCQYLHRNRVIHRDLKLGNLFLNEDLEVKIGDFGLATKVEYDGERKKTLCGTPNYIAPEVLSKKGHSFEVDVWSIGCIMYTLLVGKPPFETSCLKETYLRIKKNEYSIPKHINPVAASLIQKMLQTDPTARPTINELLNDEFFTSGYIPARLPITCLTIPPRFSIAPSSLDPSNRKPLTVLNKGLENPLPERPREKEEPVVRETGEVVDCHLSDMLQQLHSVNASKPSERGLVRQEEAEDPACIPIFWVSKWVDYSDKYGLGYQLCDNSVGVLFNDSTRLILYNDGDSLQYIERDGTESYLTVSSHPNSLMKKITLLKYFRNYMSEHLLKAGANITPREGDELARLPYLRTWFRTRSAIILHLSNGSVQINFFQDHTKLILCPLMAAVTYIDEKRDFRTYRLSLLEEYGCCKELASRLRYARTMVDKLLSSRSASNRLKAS
HEK293 membranes over-expressing WFS-1, sequence (O76024 whole entry): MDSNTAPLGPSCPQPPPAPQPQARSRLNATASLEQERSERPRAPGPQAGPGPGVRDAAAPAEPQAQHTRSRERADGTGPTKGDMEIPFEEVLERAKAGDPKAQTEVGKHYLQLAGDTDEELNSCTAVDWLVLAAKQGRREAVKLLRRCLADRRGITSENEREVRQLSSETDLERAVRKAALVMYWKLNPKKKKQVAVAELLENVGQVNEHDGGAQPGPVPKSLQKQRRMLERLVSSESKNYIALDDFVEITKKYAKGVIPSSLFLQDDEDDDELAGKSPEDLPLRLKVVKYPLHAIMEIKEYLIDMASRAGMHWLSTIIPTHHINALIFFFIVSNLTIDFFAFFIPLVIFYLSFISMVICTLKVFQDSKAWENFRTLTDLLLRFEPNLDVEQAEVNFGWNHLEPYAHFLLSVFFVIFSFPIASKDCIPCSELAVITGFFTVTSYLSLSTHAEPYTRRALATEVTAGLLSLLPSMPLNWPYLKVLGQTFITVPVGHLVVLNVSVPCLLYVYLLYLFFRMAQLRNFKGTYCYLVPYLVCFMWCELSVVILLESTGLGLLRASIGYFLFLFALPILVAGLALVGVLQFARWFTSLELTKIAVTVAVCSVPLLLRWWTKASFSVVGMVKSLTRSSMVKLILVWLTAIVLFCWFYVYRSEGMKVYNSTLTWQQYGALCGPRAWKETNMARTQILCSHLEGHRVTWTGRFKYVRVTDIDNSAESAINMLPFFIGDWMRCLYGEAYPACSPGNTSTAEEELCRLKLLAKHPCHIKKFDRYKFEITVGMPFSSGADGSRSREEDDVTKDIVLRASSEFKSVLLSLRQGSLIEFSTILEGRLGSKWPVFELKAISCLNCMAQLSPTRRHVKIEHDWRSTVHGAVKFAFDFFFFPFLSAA

Consider `Cc1nc(NCc2cnn(Cc3cc(F)c(F)c(F)c3)c2)nc2c1N(C)C(=O)[C@H](C)N2C` [Compound 14, (7S)-4,5,7,8-tetramethyl-2-(((1-(3,4,5-trifluorobenzyl)-1H-pyrazol-4-yl)methyl)amino)-7,8-dihydropteridin-6(5H)-one], for which the Ki in test [1] is over 4 µM. For the same molecule, in test [2], the “Percent Remaining Activity at 8 hrs after Dosing” value (“Percent Remaining Activity” below) is 33%. For the same molecule, the IC50 in test [3] (Homo sapiens, COLO 205, 5 h) was under 300 nM.
As to `Cc1nc(NCc2cnn(Cc3ccc(F)cc3)c2)nc2c1N(C)C(=O)C1(CC1)N2C` [Compound 223, 2′-(((1-(4-fluorobenzyl)-1H-pyrazol-4-yl)methyl)amino)-4′,5′,8′-trimethyl-5′,8′-dihydro-6′H-spiro[cyclopropane-1,7′-pteridin]-6′-one], the Ki in test [1] was over 4 µM. In test [2], the “Percent Remaining Activity” value is given as 39%. For the same molecule, the IC50 in test [3] (Homo sapiens, COLO 205, 5 h) was under 300 nM.
For the molecule `CN1C(=O)C(C)(C)N(C)c2nc(NCc3cnn(Cc4ccc(F)cc4)c3)ncc21` [Compound 224, 2-(((1-(4-fluorobenzyl)-1H-pyrazol-4-yl)methyl)amino)-5,7,7,8-tetramethyl-7,8-dihydropteridin-6(5H)-one], the Ki in test [1] is over 4 µM. In addition, the IC50 in test [3] (Homo sapiens, COLO 205, 5 h) is under 300 nM.
Consider `CN1C(=O)C(C)(C)N(C)c2nc(NCc3cnn(Cc4cc(F)c(F)c(F)c4)c3)ncc21` [Compound 229, 5,7,7,8-tetramethyl-2-(((1-(3,4,5-trifluorobenzyl)-1H-pyrazol-4-yl)methyl)amino)-7,8-dihydropteridin-6(5H)-one], for which the Ki in test [1] was over 4 µM. Further, in test [2], the “Percent Remaining Activity” value was determined as 49%. The IC50 in test [3] (Homo sapiens, COLO 205, 5 h) was under 300 nM.
In the case of `CCN1C(=O)[C@@](C)(CC)N(CC)c2nc(NCc3cnn(Cc4ccc(F)cc4)c3)ncc21` [Compound 234, (7R)-5,7,8-triethyl-2-(((1-(4-fluorobenzyl)-1H-pyrazol-4-yl)methyl)amino)-7-methyl-7,8-dihydropteridin-6(5H)-one], in test [1], the Ki is over 4 µM. The IC50 in test [3] was in the range of 300 to 1000 nM.
As for `Cc1nc(N[C@H]2C[C@H](OCc3cc(F)c(F)c(F)c3)C2)nc2c1NC(=O)[C@H](C)N2C` [Compound 254, (7S)-4,7,8-trimethyl-2-((trans-3-((3,4,5-trifluorobenzyl)oxy)cyclobutyl)amino)-7,8-dihydropteridin-6(5H)-one], the Ki in test [1] is over 4 µM. In addition, the half-maximal inhibitory concentration (IC50) in test [4] was 60 to 600 nM; in test [5], under 600 nM; in test [3] (Homo sapiens, COLO 205, 5 h) it was under 300 nM. Moreover, the EC50 in test [6] fell in the range of 600 to 2000 nM.
For `Cc1nc(N[C@@H]2CC[C@@H](Oc3cc(F)c(F)c(F)c3)C2)nc2c1NC(=O)[C@H](C)N2C` [Compound 267, (S)-4,7,8-trimethyl-2-(((1R,3R)-3-(3,4,5-trifluorophenoxy)cyclopentyl)amino)-7,8-dihydropteridin-6(5H)-one], the Ki in test [1] is over 4 µM. Further, in test [3] (Homo sapiens, COLO 205, 5 h), the IC50 is under 300 nM.
With `Cc1nc(N[C@H]2CC[C@H](Oc3cc(F)c(F)c(F)c3)C2)nc2c1NC(=O)[C@H](C)N2C` [Compound 268, (S)-4,7,8-trimethyl-2-(((1S,3S)-3-(3,4,5-trifluorophenoxy)cyclopentyl)amino)-7,8-dihydropteridin-6(5H)-one], the Ki in test [1] is over 4 µM. The IC50 in test [3] fell in the range of 300 to 1000 nM.
As to `Cc1nc(N[C@H]2C[C@@H](Cn3nccc3C(F)(F)F)C2)nc2c1NC(=O)[C@H](C)N2C` [Compound 275, (7S)-4,7,8-trimethyl-2-((cis-3-((5-(trifluoromethyl)-1H-pyrazol-1-yl)methyl)cyclobutyl)amino)-7,8-dihydropteridin-6(5H)-one], the Ki in test [1] is over 4 µM. Moreover, the IC50 in test [3] (Homo sapiens, COLO 205, 5 h) is under 300 nM.

The term IC50 denotes the midpoint of a concentration-inhibition curve. In general, EC50 refers to the concentration needed to bring the measured effect to its halfway point.

Values taken from US20230312587A1, “PTERIDINONE COMPOUNDS AND USES THEREOF” (Vertex Pharmaceutical Incorporated, priority 2018, published 2023).
